Assay [1] addresses 5'-AMP-activated protein kinase catalytic subunit alpha-2 (Homo sapiens) (UniProt P54646).
For assay [2], the target named is Calcium/calmodulin-dependent protein kinase type II subunit alpha (Homo sapiens) (UniProt Q9UQM7).
Assay [3] has as its target Cyclin-dependent kinase 2 (Homo sapiens, UniProt P24941).
Assay [4] concerns the target Cyclin-dependent kinase-like 1 (Homo sapiens) (UniProt Q00532).
In assay [5] the target is Serine/threonine-protein kinase Chk2 (Homo sapiens, UniProt O96017).
Assay [6] has as its target Dual specificity protein kinase CLK3 (Homo sapiens) (UniProt P49761).
The target in assay [7] is Casein kinase I isoform gamma-2 (Homo sapiens) (UniProt P78368).
Assay [8] deals with Casein kinase I isoform gamma-3 (Homo sapiens) (UniProt Q9Y6M4).
Assay [9] deals with Tyrosine-protein kinase JAK1 (Homo sapiens) (UniProt P23458).
The target in assay [10] is Mitogen-activated protein kinase 6 (Homo sapiens) (UniProt Q16659).
The target in assay [11] is Serine/threonine-protein kinase PAK 5 (Homo sapiens) (UniProt Q9P286).
Assay [12] has as its target Serine/threonine-protein kinase PAK 6 (Homo sapiens) (UniProt Q9NQU5).
Assay [13] has as its target Serine/threonine-protein kinase pim-1 (Homo sapiens) (UniProt P11309).
In assay [14] the target is Serine/threonine-protein kinase pim-2 (Homo sapiens, UniProt Q9P1W9).
Assay [15] addresses Serine/threonine-protein kinase PLK1 (Homo sapiens) (UniProt P53350).
Assay [16] addresses T1, Serine/threonine-protein kinase PLK4 (Homo sapiens) (UniProt O00444).
T1 sequence (whole entry): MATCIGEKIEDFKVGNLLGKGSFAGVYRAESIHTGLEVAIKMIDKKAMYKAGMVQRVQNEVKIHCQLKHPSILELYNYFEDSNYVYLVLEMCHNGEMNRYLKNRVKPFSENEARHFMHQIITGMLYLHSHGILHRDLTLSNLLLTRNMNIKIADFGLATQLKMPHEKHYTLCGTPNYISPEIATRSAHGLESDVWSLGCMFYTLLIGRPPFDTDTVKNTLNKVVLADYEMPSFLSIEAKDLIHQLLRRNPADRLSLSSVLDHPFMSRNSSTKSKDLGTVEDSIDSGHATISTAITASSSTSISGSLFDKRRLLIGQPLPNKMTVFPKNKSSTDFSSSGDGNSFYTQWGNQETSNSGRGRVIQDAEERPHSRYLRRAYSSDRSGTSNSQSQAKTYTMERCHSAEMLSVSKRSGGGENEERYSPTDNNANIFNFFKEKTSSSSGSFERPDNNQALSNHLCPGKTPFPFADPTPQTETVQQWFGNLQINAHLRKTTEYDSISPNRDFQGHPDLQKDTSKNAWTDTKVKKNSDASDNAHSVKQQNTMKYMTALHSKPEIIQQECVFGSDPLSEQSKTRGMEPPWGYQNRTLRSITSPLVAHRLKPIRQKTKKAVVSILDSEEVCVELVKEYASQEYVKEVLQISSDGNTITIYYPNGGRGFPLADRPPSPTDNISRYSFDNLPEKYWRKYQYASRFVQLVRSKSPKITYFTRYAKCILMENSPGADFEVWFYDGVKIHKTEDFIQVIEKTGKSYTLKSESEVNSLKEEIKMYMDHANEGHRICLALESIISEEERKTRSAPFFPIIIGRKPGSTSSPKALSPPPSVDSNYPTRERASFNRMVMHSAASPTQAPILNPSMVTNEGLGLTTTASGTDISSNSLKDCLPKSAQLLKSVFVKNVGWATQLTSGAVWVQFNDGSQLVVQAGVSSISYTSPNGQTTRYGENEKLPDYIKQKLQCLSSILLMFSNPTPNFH

Assay [17] concerns the target Serine/threonine-protein kinase 10 (Homo sapiens) (UniProt O94804).
Assay [18] concerns the target T2, Serine/threonine-protein kinase 17A (Homo sapiens) (UniProt Q9UEE5).
T2 sequence (whole entry): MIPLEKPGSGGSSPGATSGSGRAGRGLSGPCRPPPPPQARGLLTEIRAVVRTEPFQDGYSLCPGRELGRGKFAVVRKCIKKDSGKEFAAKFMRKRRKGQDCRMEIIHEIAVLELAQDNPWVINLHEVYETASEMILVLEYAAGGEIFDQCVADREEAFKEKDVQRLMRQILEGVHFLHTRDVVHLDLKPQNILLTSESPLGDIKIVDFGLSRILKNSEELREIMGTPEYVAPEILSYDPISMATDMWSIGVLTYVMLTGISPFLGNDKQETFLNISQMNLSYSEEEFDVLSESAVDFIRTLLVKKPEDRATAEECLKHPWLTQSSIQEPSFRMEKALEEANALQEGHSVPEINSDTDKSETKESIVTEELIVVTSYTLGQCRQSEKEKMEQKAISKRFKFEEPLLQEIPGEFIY

Assay [19] addresses Serine/threonine-protein kinase 26 (Homo sapiens) (UniProt Q9P289).
Assay [20] concerns the target T3, Serine/threonine-protein kinase VRK3 (Homo sapiens) (UniProt Q8IV63).
T3 sequence (whole entry): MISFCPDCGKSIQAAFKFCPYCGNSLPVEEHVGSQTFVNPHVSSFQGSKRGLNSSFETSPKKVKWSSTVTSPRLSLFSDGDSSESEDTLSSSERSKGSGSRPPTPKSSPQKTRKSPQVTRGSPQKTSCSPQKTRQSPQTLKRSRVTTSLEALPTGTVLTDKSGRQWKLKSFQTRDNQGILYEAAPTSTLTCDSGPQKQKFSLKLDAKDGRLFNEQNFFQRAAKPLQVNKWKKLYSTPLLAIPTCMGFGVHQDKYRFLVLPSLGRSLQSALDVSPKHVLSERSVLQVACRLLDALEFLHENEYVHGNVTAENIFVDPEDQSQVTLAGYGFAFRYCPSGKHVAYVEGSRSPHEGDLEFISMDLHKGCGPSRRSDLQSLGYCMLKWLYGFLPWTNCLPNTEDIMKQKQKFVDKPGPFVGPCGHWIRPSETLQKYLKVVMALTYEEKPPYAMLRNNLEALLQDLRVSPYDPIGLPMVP

Chain of Serine/threonine-protein kinase 26 (Homo sapiens) (Q9P289 2-416 limits assumed): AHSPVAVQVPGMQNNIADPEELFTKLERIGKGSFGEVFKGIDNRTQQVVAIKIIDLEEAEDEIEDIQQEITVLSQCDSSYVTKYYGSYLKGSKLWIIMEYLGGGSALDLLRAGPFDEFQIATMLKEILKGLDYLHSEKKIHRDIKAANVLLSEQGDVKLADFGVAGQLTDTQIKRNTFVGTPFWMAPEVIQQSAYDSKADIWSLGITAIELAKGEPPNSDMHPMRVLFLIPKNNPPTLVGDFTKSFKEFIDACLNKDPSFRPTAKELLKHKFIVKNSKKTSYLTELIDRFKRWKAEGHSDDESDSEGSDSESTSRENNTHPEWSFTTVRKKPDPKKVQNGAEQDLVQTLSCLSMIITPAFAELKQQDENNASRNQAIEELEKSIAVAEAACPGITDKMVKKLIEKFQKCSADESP
Chain of Serine/threonine-protein kinase PAK 6 (Homo sapiens) (Q9NQU5 whole entry, looked up): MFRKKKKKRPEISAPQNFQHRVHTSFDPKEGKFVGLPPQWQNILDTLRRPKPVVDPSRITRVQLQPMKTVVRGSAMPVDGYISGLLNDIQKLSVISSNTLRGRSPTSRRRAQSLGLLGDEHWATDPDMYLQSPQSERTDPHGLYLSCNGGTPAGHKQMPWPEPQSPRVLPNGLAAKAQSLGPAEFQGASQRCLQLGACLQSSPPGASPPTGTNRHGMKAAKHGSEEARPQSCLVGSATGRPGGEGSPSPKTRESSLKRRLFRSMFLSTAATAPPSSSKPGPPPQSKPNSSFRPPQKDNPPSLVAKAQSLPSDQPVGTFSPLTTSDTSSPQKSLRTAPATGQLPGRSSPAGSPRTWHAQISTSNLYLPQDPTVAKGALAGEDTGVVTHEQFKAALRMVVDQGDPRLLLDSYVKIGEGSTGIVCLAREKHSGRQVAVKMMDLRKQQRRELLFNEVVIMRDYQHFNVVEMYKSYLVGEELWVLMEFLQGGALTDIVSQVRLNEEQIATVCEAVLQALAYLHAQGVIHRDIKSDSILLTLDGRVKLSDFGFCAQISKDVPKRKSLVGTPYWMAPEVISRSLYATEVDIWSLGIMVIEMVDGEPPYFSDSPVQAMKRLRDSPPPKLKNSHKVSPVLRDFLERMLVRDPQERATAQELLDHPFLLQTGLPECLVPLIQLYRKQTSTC
Chain of Tyrosine-protein kinase JAK1 (Homo sapiens) (P23458 whole entry): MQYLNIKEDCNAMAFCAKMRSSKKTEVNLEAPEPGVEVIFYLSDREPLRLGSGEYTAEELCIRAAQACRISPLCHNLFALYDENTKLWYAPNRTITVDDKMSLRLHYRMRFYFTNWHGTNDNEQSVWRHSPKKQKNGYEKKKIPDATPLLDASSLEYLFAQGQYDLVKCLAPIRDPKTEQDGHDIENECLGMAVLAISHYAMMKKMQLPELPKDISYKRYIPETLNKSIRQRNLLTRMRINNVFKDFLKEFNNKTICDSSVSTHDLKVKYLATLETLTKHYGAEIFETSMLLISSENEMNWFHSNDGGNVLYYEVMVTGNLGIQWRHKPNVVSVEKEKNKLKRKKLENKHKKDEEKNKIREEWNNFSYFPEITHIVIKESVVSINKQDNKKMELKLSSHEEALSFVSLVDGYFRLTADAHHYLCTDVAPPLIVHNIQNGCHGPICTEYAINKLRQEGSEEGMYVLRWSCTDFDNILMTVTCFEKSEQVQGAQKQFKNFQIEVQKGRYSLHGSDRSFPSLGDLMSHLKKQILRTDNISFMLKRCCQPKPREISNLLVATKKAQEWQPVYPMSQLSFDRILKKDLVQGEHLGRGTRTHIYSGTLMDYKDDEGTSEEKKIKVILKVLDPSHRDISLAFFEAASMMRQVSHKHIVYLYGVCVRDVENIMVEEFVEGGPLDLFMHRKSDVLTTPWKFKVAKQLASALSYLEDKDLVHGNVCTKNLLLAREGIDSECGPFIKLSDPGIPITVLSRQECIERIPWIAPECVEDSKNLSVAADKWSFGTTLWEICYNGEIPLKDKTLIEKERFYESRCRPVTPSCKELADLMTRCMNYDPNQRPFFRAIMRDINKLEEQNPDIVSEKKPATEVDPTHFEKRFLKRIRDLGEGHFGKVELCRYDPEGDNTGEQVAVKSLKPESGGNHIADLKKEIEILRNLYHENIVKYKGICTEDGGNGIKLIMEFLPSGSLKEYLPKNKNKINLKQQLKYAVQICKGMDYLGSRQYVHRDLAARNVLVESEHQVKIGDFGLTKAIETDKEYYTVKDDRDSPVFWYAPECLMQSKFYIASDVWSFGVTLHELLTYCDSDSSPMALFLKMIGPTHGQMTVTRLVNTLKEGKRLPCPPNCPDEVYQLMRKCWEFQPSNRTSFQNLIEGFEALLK
Chain of Dual specificity protein kinase CLK3 (Homo sapiens) (P49761 whole entry, looked up, canonical isoform): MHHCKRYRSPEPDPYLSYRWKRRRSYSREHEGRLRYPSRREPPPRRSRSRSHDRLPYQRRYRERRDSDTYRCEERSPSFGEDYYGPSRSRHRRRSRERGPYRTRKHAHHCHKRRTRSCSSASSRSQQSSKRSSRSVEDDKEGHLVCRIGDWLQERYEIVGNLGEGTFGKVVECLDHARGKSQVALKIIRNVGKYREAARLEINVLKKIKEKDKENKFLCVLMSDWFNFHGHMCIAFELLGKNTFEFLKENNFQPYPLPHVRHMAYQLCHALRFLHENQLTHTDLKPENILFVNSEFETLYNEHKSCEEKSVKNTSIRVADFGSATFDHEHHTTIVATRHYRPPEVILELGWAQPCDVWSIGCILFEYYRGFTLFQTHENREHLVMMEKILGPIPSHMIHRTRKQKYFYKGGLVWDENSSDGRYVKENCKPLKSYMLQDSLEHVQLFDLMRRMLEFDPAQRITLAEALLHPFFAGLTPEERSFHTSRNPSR
Chain of Serine/threonine-protein kinase pim-1 (Homo sapiens) (P11309 whole entry, looked up): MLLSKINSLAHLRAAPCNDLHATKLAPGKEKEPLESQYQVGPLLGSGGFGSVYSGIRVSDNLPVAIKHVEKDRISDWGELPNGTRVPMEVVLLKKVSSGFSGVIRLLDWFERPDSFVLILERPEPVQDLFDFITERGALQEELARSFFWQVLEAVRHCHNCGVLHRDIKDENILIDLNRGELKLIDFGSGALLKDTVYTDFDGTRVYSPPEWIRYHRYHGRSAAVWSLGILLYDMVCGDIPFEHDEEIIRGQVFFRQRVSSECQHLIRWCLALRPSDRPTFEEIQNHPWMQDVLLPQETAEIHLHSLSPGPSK
Chain of Serine/threonine-protein kinase pim-2 (Q9P1W9 whole entry, looked up): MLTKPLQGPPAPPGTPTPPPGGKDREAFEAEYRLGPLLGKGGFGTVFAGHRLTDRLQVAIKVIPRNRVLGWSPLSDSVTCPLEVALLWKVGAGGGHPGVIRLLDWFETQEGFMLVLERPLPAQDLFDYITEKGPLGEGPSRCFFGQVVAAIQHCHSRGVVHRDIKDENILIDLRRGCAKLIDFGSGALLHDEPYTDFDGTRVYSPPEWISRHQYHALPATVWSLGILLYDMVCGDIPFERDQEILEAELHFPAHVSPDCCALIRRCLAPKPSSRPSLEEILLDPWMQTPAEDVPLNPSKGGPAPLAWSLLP
Chain of Casein kinase I isoform gamma-3 (Homo sapiens) (Q9Y6M4 whole entry, looked up, canonical isoform): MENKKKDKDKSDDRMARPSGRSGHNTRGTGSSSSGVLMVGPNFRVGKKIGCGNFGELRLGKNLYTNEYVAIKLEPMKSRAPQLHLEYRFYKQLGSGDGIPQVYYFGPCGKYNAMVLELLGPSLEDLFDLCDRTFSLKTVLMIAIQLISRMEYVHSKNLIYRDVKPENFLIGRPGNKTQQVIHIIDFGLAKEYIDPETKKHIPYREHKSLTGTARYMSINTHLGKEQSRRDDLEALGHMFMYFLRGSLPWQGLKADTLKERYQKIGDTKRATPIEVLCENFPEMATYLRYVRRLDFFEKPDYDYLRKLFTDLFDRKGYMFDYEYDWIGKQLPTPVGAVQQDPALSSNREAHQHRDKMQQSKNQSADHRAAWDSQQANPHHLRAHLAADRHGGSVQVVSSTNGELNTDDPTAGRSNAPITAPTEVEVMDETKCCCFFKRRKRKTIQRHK
Chain of Calcium/calmodulin-dependent protein kinase type II subunit alpha (Homo sapiens) (Q9UQM7 whole entry): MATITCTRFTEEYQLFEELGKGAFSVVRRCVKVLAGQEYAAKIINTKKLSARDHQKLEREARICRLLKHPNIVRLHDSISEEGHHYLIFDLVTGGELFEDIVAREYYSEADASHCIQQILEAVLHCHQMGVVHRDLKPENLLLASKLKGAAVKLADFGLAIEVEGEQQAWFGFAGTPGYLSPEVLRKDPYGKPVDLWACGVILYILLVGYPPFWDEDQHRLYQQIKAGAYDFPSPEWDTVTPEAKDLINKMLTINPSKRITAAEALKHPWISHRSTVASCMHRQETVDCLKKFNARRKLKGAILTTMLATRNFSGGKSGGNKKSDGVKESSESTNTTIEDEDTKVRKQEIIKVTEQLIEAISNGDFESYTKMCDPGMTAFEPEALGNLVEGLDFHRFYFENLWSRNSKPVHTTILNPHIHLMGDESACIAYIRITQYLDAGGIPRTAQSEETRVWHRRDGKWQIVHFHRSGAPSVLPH
Chain of Serine/threonine-protein kinase PAK 5 (Homo sapiens) (Q9P286 whole entry, looked up): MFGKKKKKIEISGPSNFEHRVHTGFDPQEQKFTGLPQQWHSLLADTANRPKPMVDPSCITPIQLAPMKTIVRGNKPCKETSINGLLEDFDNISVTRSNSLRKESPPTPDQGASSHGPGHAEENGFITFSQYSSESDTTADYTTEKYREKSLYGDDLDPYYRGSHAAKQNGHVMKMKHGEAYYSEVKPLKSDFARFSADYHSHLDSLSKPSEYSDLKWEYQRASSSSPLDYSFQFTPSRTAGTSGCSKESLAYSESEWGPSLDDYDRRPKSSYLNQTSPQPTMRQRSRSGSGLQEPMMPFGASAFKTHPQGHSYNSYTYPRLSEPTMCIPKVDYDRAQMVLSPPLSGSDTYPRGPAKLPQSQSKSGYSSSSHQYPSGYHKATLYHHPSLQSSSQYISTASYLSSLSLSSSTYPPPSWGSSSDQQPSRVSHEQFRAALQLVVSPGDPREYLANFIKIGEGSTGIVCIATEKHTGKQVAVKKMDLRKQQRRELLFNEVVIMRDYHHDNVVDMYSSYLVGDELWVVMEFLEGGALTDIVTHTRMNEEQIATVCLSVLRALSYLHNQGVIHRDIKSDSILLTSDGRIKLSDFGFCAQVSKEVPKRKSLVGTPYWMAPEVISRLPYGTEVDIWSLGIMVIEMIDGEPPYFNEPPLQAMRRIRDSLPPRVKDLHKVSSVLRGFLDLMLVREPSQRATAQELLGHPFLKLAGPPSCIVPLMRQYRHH

The ΔTm is the shift of the melting midpoint relative to a reference. With `N=C(N)NCCNS(=O)(=O)c1cccc2cnccc12`, the ΔTm in [1] was 0.5 °C; in assay [2] it was 0.3 °C; in assay [3], 0.3 °C; in assay [4], 0 °C; in assay [5], 0.2 °C; in assay [6] it was 0 °C. Moreover, the ΔTm in assay [7] is 0.4 °C; in [8], 0.3 °C; in assay [9], -0.3 °C; in assay [10], 0.4 °C; in [11] it was 0.4 °C; in assay [12], 0 °C. The ΔTm in [13] was -0.4 °C; in [14], 0.6 °C; in assay [15] it was 0.3 °C; in assay [16] it was 0.1 °C; in [17], 0.7 °C; in [18], 0.6 °C. Further, the ΔTm in [19] was 0.1 °C; in [20], 0.3 °C.

Take `Cc1nc2sccn2c(=O)c1CCN1CCC(=C(c2ccccc2)c2ccc(F)cc2)CC1`: the ΔTm was -0.1 °C in [1]; 1.3 °C in assay [2]; 1.2 °C in assay [3]; 0.4 °C in assay [4]; 0.4 °C in assay [5]; 3 °C in assay [6]. Further, the ΔTm in [7] stood at 0.3 °C; in assay [8], 0.3 °C; in assay [9], 4.8 °C; in [10], 0.2 °C; in [11], 1 °C; in [12] it was 0.8 °C. The ΔTm was determined as 6.6 °C in assay [13]; 3.3 °C in assay [14]; 0.6 °C in [15]; 2.8 °C in [16]; 3.1 °C in [17]; 8.8 °C in assay [18]. Also, the ΔTm in assay [19] was determined as 0.4 °C; in assay [20], 0 °C.

For `N#C/C(=C(/N)Sc1ccc(N)cc1)c1ccccc1C(F)(F)F`, the ΔTm was -0.8 °C in [1]; 0.6 °C in [2]; 0.4 °C in assay [3]; -0.2 °C in assay [4]; 0.3 °C in assay [5]; 0 °C in assay [6]. In addition, the ΔTm in assay [7] was 0.3 °C; in [8], 0.6 °C; in assay [9] it was -5 °C; in assay [10], 0.4 °C; in assay [11] it was 0.6 °C; in assay [12], 0.4 °C. For the same compound, the ΔTm was -0.2 °C in [13]; 0.2 °C in [14]; -0.2 °C in assay [15]; 0.1 °C in assay [16]; 0.4 °C in [17]; 0.4 °C in [18]. Also, the ΔTm is 1 °C in assay [19] and 0.5 °C in [20].

Consider `COc1ccc(S(=O)(=O)N(CCO)c2ccccc2CN(C)C/C=C/c2ccc(Cl)cc2)cc1`, for which the ΔTm in assay [1] was -1 °C; in [2], -0.7 °C; in assay [3], 0 °C; in assay [4], -1.2 °C; in [5], -0.1 °C; in assay [6] it was -0.3 °C. Moreover, the ΔTm in assay [7] is 0.3 °C; in [8], 0 °C; in assay [9], -0.5 °C; in [10] it was -0.5 °C; in [11] it was -0.4 °C; in assay [12] it was -0.8 °C. Also, the ΔTm in [13] was 1.3 °C; in [14], 0.6 °C; in assay [15] it was -0.2 °C; in assay [16], 1 °C; in [17], 0.2 °C; in assay [18], 0.1 °C. For the same compound, the ΔTm in assay [19] is -0.1 °C; in assay [20], -0.6 °C.

For the compound `CCN(CC)CCNC(=O)c1c(C)[nH]c(/C=C2\C(=O)Nc3ccc(Cl)cc32)c1C` [SU-11652], the ΔTm in [1] came to 7 °C; in assay [2], 5.7 °C; in assay [3], 0.9 °C; in assay [4], 0.2 °C; in assay [5], 10.3 °C; in assay [6], 2.2 °C. For the same compound, the ΔTm in assay [7] is 4 °C; in [8], 3.8 °C; in assay [9] it was 9.7 °C; in assay [10] it was 0.8 °C; in assay [11], 4.7 °C; in assay [12], 4.4 °C. The ΔTm in assay [13] came out at 2.9 °C; in [14], 2.3 °C; in assay [15] it was 0.5 °C; in assay [16] it was 7.8 °C; in assay [17], 8.1 °C; in [18], 11 °C. Further, the ΔTm was 5.8 °C in [19] and 0.3 °C in assay [20].

Regarding `C[S+]([O-])c1ccc(-c2nc(-c3ccc(F)cc3)c(-c3ccncc3)[nH]2)cc1` (stereo not given) [SB-203580], the shift in melting temperature (ΔTm) in assay [1] is -0.9 °C; in assay [2] it was 0.3 °C; in assay [3] it was -0.1 °C; in assay [4], -0.4 °C; in assay [5], -0.5 °C; in [6] it was -0.1 °C. Besides, the ΔTm in [7] is 0.7 °C; in assay [8], 0.4 °C; in assay [9] it was 2.3 °C; in assay [10], 0 °C; in assay [11] it was -0.1 °C; in assay [12] it was 0 °C. The ΔTm is -2.1 °C in [13]; 0 °C in assay [14]; 0.2 °C in [15]; 0.7 °C in assay [16]; 2.7 °C in [17]; 0 °C in assay [18]. The results for the ΔTm in [19] and in assay [20] were -0.4 °C and 0 °C, respectively.

`CC(C)(C)n1nc(-c2cccc3ccccc23)c2c(N)ncnc21`: the ΔTm in [1] is 0 °C; in [2] it was 0.3 °C; in assay [3] it was 0.1 °C; in assay [4], -0.5 °C; in assay [5], 0.3 °C; in assay [6], 0.2 °C. In addition, the ΔTm in [7] is 0.5 °C; in [8], 0.5 °C; in [9] it was -0.1 °C; in assay [10], 0 °C; in [11], 1 °C; in assay [12], 0.3 °C. For the same compound, the ΔTm was -0.2 °C in assay [13]; -0.2 °C in assay [14]; 0 °C in assay [15]; 1.1 °C in assay [16]; 4 °C in assay [17]; 2 °C in [18]. The ΔTm in [19] was determined as 1.1 °C; in assay [20] it was 0.2 °C.

The record behind these values is ChEMBL document CHEMBL1145498, “A systematic interaction map of validated kinase inhibitors with Ser/Thr kinases” (Proc Natl Acad Sci U S A, 2007).
